PMC10295897, “A Novel MDM2-Binding Chalcone Induces Apoptosis of Oral Squamous Cell Carcinoma” (Biomedicines, 2023)

Key:
[1] = system: SCC4 cells; assay: MTT cell viability assay, SCC4 cells; assay type: cell-based, human
Procedure: (§1) Human SCC-4, SCC-9, and SCC-25 cells derived from a human oral tongue SCC (squamous cell carcinoma) were obtained from the ATCC (CRL-1624, CRL-1629, and CRL-1628, respectively) and maintained in 1:1 DMEM/F12 (Dulbecco’s modified Eagle medium and Ham’s F12 medium; Gibco (Thermo Fisher, Waltham, MA, USA)) supplemented with 10% (v/v) FBS (fetal bovine serum; Invitrogen, Thermo Fisher, Waltham, MA, USA) and 400 ng/mL hydrocortisone (Sigma-Aldrich Co., St. Louis, MO, USA). Primary normal human gingival fibroblasts were obtained from the ATCC (PCS-201-018; HGF) and maintained in DMEM supplemented with 10% (v/v) FBS and were used in a maximum of six passages. The cells were grown in a humidified environment containing 5% CO2 at 37 °C. For all biological experiments, the compounds and control nutlin 3a were solubilized in 100% DMSO (all Sigma-Aldrich) to a final concentration of 10 mM. Carboplatin stock was prepared in water (Fauldcarbo®; LibbsFarmacêutica, São Paulo, SP, Brazil) and was used as a standard anticancer compound.
(§2) The viability of SCC cell lines, HT-29, HCT-116, HEP2G and primary human fibroblast cells was evaluated using the MTT assay as in [26]. Briefly, the cells were grown in duplicates in 96-well plates (5 × 10^3 cells/well) until confluence. Then, the medium was removed, fresh medium was added, and the cells were returned to the incubator in the presence of different compounds. DMSO at the same concentrations was used as a 100% cell viability control. After 48 h, the cells were incubated with 5 mg/mL MTT reagent (3-(4,5-dimethyl-2-thiazolyl)-2,5-diphenyl-2-H-tetrazolium bromide) (Sigma-Aldrich Co., St. Louis, MO, USA) for 3.5 h. After that, formazan crystals were dissolved in MTT solvent solution (DMSO/methanol 1:1 v/v), and the absorbance at 560 nm was evaluated using an EPOCH microplate spectrophotometer (BioTek Instruments, Winooski, VT, USA) with the background absorbance at 670 nm subtracted. Each of the six compounds was tested at six or seven different concentrations, ranging from 0.3 µM to 200 µM in cancer cell lines (SCC-4, SCC-9 and SCC-25) and 0.3 µM to 200 µM in primary normal human gingival fibroblasts. Controls (carboplatin, nutlin 3a) were tested at six or seven different concentrations ranging from 0.05 µM to 1000 µM in cancer cells and normal cells, depending on the compound.
(§3) The data are presented as means ± SD. IC values for the MTT assays were obtained by nonlinear regression using the […] 5.0 program (Intuitive Software for Science, San Diego, CA, USA) from at least three independent experiments. A dose–response (inhibitor) vs. response curve using the least squares method was used to determine the IC50, SD, and R^2 of the data. The selectivity index was calculated as SI = IC50 of the compound in normal oral fibroblast cells/IC50 of the same compound for each cancer cell line (SCC-4, SCC-9, SCC-25, HCT-116, HT29 and HEP2G), and the mean was calculated when indicated.

[2] = system: Primary Gingival Fibroblast (HGF); assay: MTT cell viability assay, primary normal gingival fibroblasts; assay type: cell-based, human; details: Homo sapiens, Fibroblast, 48 h
Procedure: as §1, §2, §3

[3] = system: HCT-116 (colon cancer); assay: MTT cell viability assay, HCT-116; assay type: cell-based
Procedure: as §2, with “Each of the six compounds was tested at six or seven different concentrations, ranging from 0.3 µM to 200 µM in cancer cell lines (SCC-4, SCC-9 and SCC-25) and 0.3 µM to 200 µM in primary normal human gingival fibroblasts. Controls (carboplatin, nutlin 3a) were tested at six or seven different concentrations ranging from 0.05 µM to 1000 µM in cancer cells and normal cells, depending on the compound.” left out
The data are presented as means ± SD. […] The selectivity index was calculated as SI = IC50 of the compound in normal oral fibroblast cells/IC50 of the same compound for each cancer cell line (SCC-4, SCC-9, SCC-25, HCT-116, HT29 and HEP2G), and the mean was calculated when indicated.

[4] = system: C57BL/6 female mice; assay: In vivo acute toxicity study; details: for Gross Necropsy: day 14
Procedure: The acute toxicity study for compound 1f was performed as in the work of Macedo et al., 2019 [24]. The assay was approved by the University Animal Ethics Board under registration number 2699110419, in accordance with Brazilian guidelines and regulations. Dosing and analysis were performed according to OECD guidelines 423 and revised by Parasuraman. The test was performed in 12-week-old C57BL/6 female mice via intraperitoneal injection. Each animal group had n = 3 and received only one intraperitoneal injection (Day 0) of compound 1f dissolved in […] PBS and 3% DMSO. The control group animals received only 3% DMSO in PBS. The first dose of the compound was 25 mg/kg; subsequent dose levels (50 mg/kg and 100 mg/kg) were determined based on the result obtained from the previous dosing. The animals were examined every day, twice a day, for mortality and morbidity for 14 days. At day 14, all animals were anesthetized (ketamine 100 mg/kg and xylazine 10 mg/kg) followed by cervical dislocation. The gross necropsy and histology of the main organs were performed. Body weight and average food consumption were measured every 7 days as an indication of morbidity, and the following signs were assessed: tremors; convulsion; salivation; diarrhea; lethargy; pain signs; increased rear arching; and defect in mobility. The necropsy included an examination of the external characteristics of the carcass; external body orifices; the abdominal, thoracic, and cranial cavities; and organs/tissues—liver, thymus, right kidney, right testicle, heart, and lung.

[5] = system: SCC9 cells; assay: Cell cycle and SubG1 analysis (PI flow cytometry); assay type: cell-based, human; details: SCC9, 2 × IC50, 48 h, PI staining
Procedure: To evaluate the action of compound 1f on the cell cycle and DNA fragmentation, SCC9 cell line cells were plated in a 6-well plate (5 × 10^5 cells/well). After 48 h of treatment, the cells were trypsinized and stained with propidium iodide (75 µM) in the presence of NP-40. The DNA content was analyzed by collecting 10,000 events using a FACScalibur flow cytometer. The data were analyzed using CellQuest (BD Biosciences, Franklin Lakes, NJ, USA) and FlowJo (Tree Star Inc., Ashland, OR, USA) software as in [34].

[6] = system: SCC-9 cells; assay: Caspase-3/7 flow cytometry; assay type: cell-based, human; details: SCC9, 2 × IC50, 48 h
Procedure: Cells of the SCC9 cell line were plated in 6-well plates (5 × 10^5 cells/well), trypsinized 48 h after treatment, labeled using the Annexin V-FITC Apoptosis Detection Kit according to the manufacturer’s protocol (#BMS500FI/300, Invitrogen), and analyzed by FACScalibur flow cytometry as in [35]. Furthermore, 5 × 10^4 SCC-9 cells were plated in a 24-well plate containing 1 mL of DMEM/F12 with 10% FBS per well. CellEvent™ Caspase-3/7 Reagent (#R37111, Invitrogen) was diluted in a culture medium according to the manufacturer’s instructions. […] The cells were analyzed by flow cytometry after 48 h of treatment.

With `Cc1cccc(C)c1-n1cc(/C=C/C(=O)c2ccccc2N)nn1` [1f, (E)-1-(2-Aminophenyl)-3-(1-(2,6-dimethylphenyl)-1H-1,2,3-triazol-4-yl)prop-2-en-1-one] the IC50 ([1]; Homo sapiens, SCC-4, 48 h, MTT) was 4.73 µM, the “SCC4 S.I.” value ([1]; selective index = IC50 HGF / IC50 SCC4) was 6.25 and the IC50 [2] was 29.6 µM. For the same molecule, the IC50 ([3]; Homo sapiens, HCT-116, 48 h, MTT) was 3.99 µM, the “HCT-116 S.I.” value ([3]; IC50 HGF / IC50 HCT-116) was 7.41 and the “Change in body weight” value ([4]; 25 mg/kg single i.p., 14 days) was “Absent”. The Morbidity ([4]; 25 mg/kg single i.p., 14 days) was “Absent”, the “Gross Necropsy” value ([4]; 25 mg/kg single i.p.) was “No alteration” and the “Change in body weight” value ([4]; 50 mg/kg single i.p., 14 days) was “Absent”. For the same molecule, the Morbidity ([4]; 50 mg/kg single i.p., 14 days) was “Absent”, the “Gross Necropsy” value ([4]; 50 mg/kg single i.p.) was “No alteration” and the “Change in body weight” value ([4]; 100 mg/kg single i.p., 14 days) was “Absent”. The Morbidity ([4]; 100 mg/kg single i.p., 14 days) was “Absent”, the “Gross Necropsy” value ([4]; 100 mg/kg single i.p.) was “No alteration” and the “animal weight compared to control group” value ([4]; 25, 50, 100 mg/kg i.p., 14 days) was “no significant change in animal weight”. For the same molecule, the “food consumption, second week” value ([4]; all groups (25, 50, 100 mg/kg i.p.)) was “no noticeable difference in food consumption”, the “food intake, first week” value ([4]; all treated groups (25, 50, 100 mg/kg i.p.), more significant at 100 mg/kg) was “reduction in food intake” and the “cells in G2/M phase” value [5] was 44.0%. The “fragmentation of DNA (Sub-G1 DNA-content)” value [5] was 23.3% and the “caspase 3/7 activity” value [6] was 47.5%.
